Data as given in US12678489B2, “Multi-receptor agonist and medical use thereof” (JIANGSU HANSOH PHARMACEUTICAL GROUP CO., LTD., priority 2019, dated 2026).
Square brackets hold non-standard residues; d marks the D form. Aib = CC(C)(N)C(=O)O

Tests used:
human GLP-1R = biological target: T1, human GLP-1R (Homo sapiens, UniProt P43220); test: Agonistic activity for GLP-1R, cAMP HTRF in CHO-K1/GLP-1R/CRE-luc stably transfected cells; type: cell-based; settings: Table 4, polypeptide backbone compounds
T1 construct: expressed in transfected cells; host or cells: CHO-K1 (stably transfected, with CRE-luc reporter)

[1] = Stability of the compounds in SD rat plasma (LC-MS); type: in vitro ADME; settings: Table 6
Method: Five microliters of samples with concentrations of 20, 50, 100, 200, 500, 1000, 2000, 5000, 10000 ng/ml were added into 45 microliters of SD rat plasma, and the compound contents were detected by LC-MS, and a standard curve was plotted. 5 microliters of the polypeptide solution with a concentration of 1 mg/ml was added into 45 microliters of SD rat plasma. Five samples were prepared for each test compound, and 1 sample was taken out at 0 min, 30 min, 60 min, 120 min, and 240 min respectively. The content of the residual compounds was detected by LC-MS. The content at 0 min was used as control (100%), and the relative contents of the residual compound in the sample at other time points were calculated.

human GIPR = biological target: T2, human GIPR (Homo sapiens, UniProt P48546); test: Agonistic activity for GIPR, cAMP HTRF in CHO-K1 cells transiently transfected with hGIPR; type: cell-based; settings: Table 4, polypeptide backbone compounds
T2 construct: expressed in transfected cells; host or cells: wild-type CHO-K1, transient transfection with hGIPR plasmid (Fugene HD)
T2 sequence (P48546 22-466): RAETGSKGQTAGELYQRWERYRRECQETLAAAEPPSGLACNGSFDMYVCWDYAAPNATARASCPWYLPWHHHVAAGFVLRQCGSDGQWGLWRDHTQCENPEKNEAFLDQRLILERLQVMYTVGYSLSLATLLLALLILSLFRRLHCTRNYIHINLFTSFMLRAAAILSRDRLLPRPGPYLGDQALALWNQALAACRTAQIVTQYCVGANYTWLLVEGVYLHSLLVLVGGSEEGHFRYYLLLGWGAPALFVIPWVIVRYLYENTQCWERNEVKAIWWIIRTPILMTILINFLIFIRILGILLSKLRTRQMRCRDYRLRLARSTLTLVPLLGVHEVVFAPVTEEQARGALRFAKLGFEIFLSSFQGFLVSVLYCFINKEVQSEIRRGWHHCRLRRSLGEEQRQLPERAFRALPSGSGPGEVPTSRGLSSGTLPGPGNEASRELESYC
Method: Wild-type CHO-K1 cells were collected, and the cell suspension was adjusted to an appropriate density, plated in a 6-well plate at 2 mL per well, and placed in a 37° C., 5% CO2 incubator for adhesion overnight. The mixture for transfection (hGIPR plasmid, Fugene HD (Promega Cat #E2311), OptiMEM (Gibco Cat #31985070)) was mixed well, placed at room temperature for 15 minutes, and was added at 100 μL to the corresponding cell well. After transfection of CHO-K1 cells for 24 h, hGIPR was over-expressed on the cell surface. The cells in 6-well plate were collected after the transient transfection, and were washed once with the experimental buffer (DMEM/F12 medium (Gibco Cat #11330032) comprising 0.1% casein (Sigma Cat #C3400)), and the cell density was adjusted with the experimental buffer. The cells were plated at a density of 5000 cells/5 μL/well in a 384-well plate (Sigma Cat #CLS4514), and then 2.5 μL of IBMX working solution (Sigma Cat #17018) prepared with buffer solution (the final concentration of IBMX was 0.5 mM) and 2.5 μL of the gradient diluted polypeptide sample were added into each well, centrifuged at 1000 rpm for 1 min, shaken for 30 seconds to mix well, and incubated at room temperature for 30 minutes. Cisbio cAMP-Gs Dynamic kit (Cisbio Cat #62 AM4PEC) was used for detection. cAMP-d2 and Anti-cAMP-Eu3+-Cryptate were diluted with 20-fold cAMP Lysis & Detection Buffer respectively, and mixed well. 5 μL of the diluted cAMP-d2 solution was added into each well, and then 5 μL of the diluted Anti-cAMP-Eu3+-Cryptate solution was added into each well, shaken for 30 seconds to mix well, and incubated at room temperature for 1 hour in the dark.
HTRF signal was read with Biotek Synergy H1 microplate reader, with the excitation wavelength of 320 nm, and emission wavelength of 620 nm and 665 nm. The signal ratio (665 nm/620 nm*10,000) was calculated, and the signal ratio was nonlinear fitted to the sample concentration with four-parameter equation in GraphPad Prism 6, resulting in the EC50 values.

T1 sequence (P43220 24-463): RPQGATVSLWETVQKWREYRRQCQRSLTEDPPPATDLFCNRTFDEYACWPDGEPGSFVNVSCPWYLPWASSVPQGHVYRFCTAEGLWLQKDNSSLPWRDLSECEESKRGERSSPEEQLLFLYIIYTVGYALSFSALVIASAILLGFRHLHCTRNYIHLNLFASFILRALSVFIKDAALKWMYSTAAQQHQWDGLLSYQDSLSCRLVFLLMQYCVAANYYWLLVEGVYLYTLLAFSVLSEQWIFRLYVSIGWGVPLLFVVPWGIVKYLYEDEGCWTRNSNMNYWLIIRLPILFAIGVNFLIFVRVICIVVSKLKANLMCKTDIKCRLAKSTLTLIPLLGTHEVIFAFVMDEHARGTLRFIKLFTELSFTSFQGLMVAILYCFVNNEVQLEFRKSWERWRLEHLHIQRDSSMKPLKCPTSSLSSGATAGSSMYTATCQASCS

Question: What does the source list for “H-Y[Aib]EGTFTSDYSIYLEKEAAKEFINWLLAGGPSSGAPPPS-NH2 [Compound 63]”?
Answer: EC50 (human GLP-1R): 0.01 nM; Relative content of the residual compounds in plasma (%) 0 min ([1]; 0 min (control, set to 100%)): 100.00%; Relative content of the residual compounds in plasma (%) 30 min ([1]; 30 min): 99.31%; Relative content of the residual compounds in plasma (%) 60 min ([1]; 60 min): 98.56%; Relative content of the residual compounds in plasma (%) 120 min ([1]; 120 min): 109.18%; Relative content of the residual compounds in plasma (%) 240 min ([1]; 240 min): 108.30%; EC50 (human GIPR): 0.02 nM
